Source: patent publication US7642255B2, “Compounds and compositions as protein kinase inhibitors” (IRM LLC, priority 2004, dated 2010)

Key:
Format in all cases: cell-based
wild type Bcr-abl = biological target: T1, wild type Bcr-abl (Homo sapiens, UniProt P00519); assay: Antiproliferative effect on Ba/F3 cells expressing wild type BCR-Abl
T1 construct: BCR (N-terminal fusion partner); expressed in transfected cells; host or cells: Ba/F3 cells; the other entry of the earlier key: BCR (P11274, Breakpoint cluster region protein)
Procedure: (§1) 32D-p210 cells are plated into 96 well TC plates at a density of 15,000 cells per well. 50 μL of two fold serial dilutions of the test compound (Cmax is 40 μM) are added to each well (STI571 is included as a positive control). After incubating the cells for 48 hours at 37° C., 5% CO2, 15 μL of MTT (Promega) is added to each well and the cells are incubated for an additional 5 hours. The optical density at 570 nm is quantified spectrophotometrically and IC50 values, the concentration of compound required for 50% inhibition, determined from a dose response curve.
(§2) Compounds of the invention are tested for their antiproliferative effect on Ba/F3 cells expressing either wild type or the mutant forms of BCR-Abl (G250E, E255V, T3151, F317L, M351T) that confers resistance or diminished sensitivity to STI571. The antiproliferative effect of these compounds on the mutant-BCR-Abl expressing cells and on the non transformed cells were tested at 10, 3.3, 1.1 and 0.37 μM as described above (in media lacking IL3). The IC50 values of the compounds lacking toxicity on the untransformed cells were determined from the dose response curves obtained as describe above.

G250E Bcr-abl = biological target: T2, G250E Bcr-abl (Homo sapiens, UniProt P00519, G250E); assay: Antiproliferative effect on Ba/F3 cells expressing mutant BCR-Abl G250E
T2 construct: BCR (N-terminal fusion partner); expressed in transfected cells; host or cells: Ba/F3 cells; the other entry of the earlier key: BCR (P11274, Breakpoint cluster region protein)
Procedure: as §1, §2

E255V Bcr-abl = biological target: T3, E255V Bcr-abl (Homo sapiens, UniProt P00519, E255V); assay: Antiproliferative effect on Ba/F3 cells expressing mutant BCR-Abl E255V
T3 construct: BCR (N-terminal fusion partner); expressed in transfected cells; host or cells: Ba/F3 cells; the other entry of the earlier key: BCR (P11274, Breakpoint cluster region protein)
Procedure: as §1, §2

T3151 Bcr-abl = biological target: T4, T3151 Bcr-abl (Homo sapiens, UniProt P00519, T315I); assay: Antiproliferative effect on Ba/F3 cells expressing mutant BCR-Abl T3151
T4 construct: BCR (N-terminal fusion partner); expressed in transfected cells; host or cells: Ba/F3 cells
Procedure: as §1, §2

F317L Bcr-abl = biological target: T5, F317L Bcr-abl (Homo sapiens, UniProt P00519, F317L); assay: Antiproliferative effect on Ba/F3 cells expressing mutant BCR-Abl F317L
T5 construct: BCR (N-terminal fusion partner); expressed in transfected cells; host or cells: Ba/F3 cells; the other entry of the earlier key: BCR (P11274, Breakpoint cluster region protein)
Procedure: as §1, §2

M351T Bcr-abl = biological target: T6, M351T Bcr-abl (Homo sapiens, UniProt P00519, M351T); assay: Antiproliferative effect on Ba/F3 cells expressing mutant BCR-Abl M351T
T6 construct: BCR (N-terminal fusion partner); expressed in transfected cells; host or cells: Ba/F3 cells; the other entry of the earlier key: BCR (P11274, Breakpoint cluster region protein)
Procedure: as §1, §2

Cc1ccc(NC(=O)c2cccc(C(F)(F)F)c2)cc1N1Cc2cnc(Nc3cccc(N)c3)nc2N(C)C1=O [Example 2, N-{3-[7-(3-Amino-phenylamino)-1-methyl-2-oxo-1,4-dihydro-2H-pyrimido[4,5-d]pyrimidin-3-yl]-4-methyl-phenyl}-3-trifluoromethyl-benzamide]
IC50 (wild type Bcr-abl): 5 nM
IC50 (G250E Bcr-abl): 2 nM
IC50 (E255V Bcr-abl): 5 nM
IC50 (T3151 Bcr-abl): 3 nM
IC50 (F317L Bcr-abl): 5 nM
IC50 (M351T Bcr-abl): 5 nM
